Results as given in patent publication US20260166162A1, “CARBON CHAIN SUBSTANCE FOR REGULATING TRANSMEMBRANE TRANSPORT AND FLUIDITY OF CELL MEMBRANES, AND PREPARATION AND USE THEREOF” (priority 2022, published 2026).

Experiments:
Epithelial cells = experiment: Interaction of GFP-labelled complexes with cell membrane of epithelial cells (Example II-52, Table II-30); assay type: cell-based; conditions: GFP-labelled complex, epithelial cells pretreated 4 hours, n=3
Description: The fatty acids were combined with water-soluble small molecules to form a complex, which were labeled with GFP fluorescence to detect cell membrane fluorescence. […] After the cells were stably adhered, the water-soluble fatty acid complexes in the following table were added to the cell culture medium. […] The medium with the drug was pipetted and replaced with normal DMEM medium. […] The green fluorescence intensity was analyzed by imageJ (see Table II-30, n=3).

Hela cells = experiment: Cell membrane fluidity (Laurdan fluorescence recovery) in Hela cells; assay type: cell-based

Structure (SMILES): CCCCC/C=C/C(=O)OCC1OC(O)C(O)C(O)C1O (stereo not drawn) [Glucose-t-2-octenoic acid]
- Mean fluorescence intensity (Epithelial cells; 0 Hours after medium replaced): 99.4 ± 3.6
- Mean fluorescence intensity (Epithelial cells; 2 Hours after medium replaced): 92.5 ± 4.0
- Mean fluorescence intensity (Epithelial cells; 4 Hours after medium replaced): 61.4 ± 4.2
- Mean fluorescence intensity (Epithelial cells; 8 Hours after medium replaced): 42.3 ± 3.3
- Mean fluorescence intensity (Epithelial cells; 12 Hours after medium replaced): 36.4 ± 4.3
- Mean fluorescence intensity (Epithelial cells; 24 Hours after medium replaced): 32.4 ± 6.6

Structure (SMILES): C=CCCCCCCCCC(=O)NCCCCC(N)C(=O)O (stereo not drawn) [Lys-10-undecenoic acid]
- Mean fluorescence intensity (Epithelial cells; 0 Hours after medium replaced): 135.6 ± 2.4
- Mean fluorescence intensity (Epithelial cells; 2 Hours after medium replaced): 130.8 ± 6.7
- Mean fluorescence intensity (Epithelial cells; 4 Hours after medium replaced): 118.2 ± 9.0
- Mean fluorescence intensity (Epithelial cells; 8 Hours after medium replaced): 89.5 ± 4.4
- Mean fluorescence intensity (Epithelial cells; 12 Hours after medium replaced): 58.6 ± 5.7
- Mean fluorescence intensity (Epithelial cells; 24 Hours after medium replaced): 49.6 ± 0.5

Structure (SMILES): CCC=CCC=CCC=CCC=CCC=CCCCC(=O)NCCCCC(N)C(=O)O (stereo not drawn) [Lys-EPA]
- Mean fluorescence intensity (Epithelial cells; 0 Hours after medium replaced): 123.3 ± 8.8
- Mean fluorescence intensity (Epithelial cells; 2 Hours after medium replaced): 119.2 ± 3.7
- Mean fluorescence intensity (Epithelial cells; 4 Hours after medium replaced): 109.4 ± 1.7
- Mean fluorescence intensity (Epithelial cells; 8 Hours after medium replaced): 66.4 ± 4.7
- Mean fluorescence intensity (Epithelial cells; 12 Hours after medium replaced): 39.4 ± 5.8
- Mean fluorescence intensity (Epithelial cells; 24 Hours after medium replaced): 32.5 ± 4.5

Structure (SMILES): CC=CC(=O)NCCCCC(N)C(=O)O (stereo not drawn) [Lys-crotonic acid]
- Mean fluorescence intensity (Epithelial cells; 0 Hours after medium replaced): 119.3 ± 3.4
- Mean fluorescence intensity (Epithelial cells; 2 Hours after medium replaced): 120.0 ± 6.6
- Mean fluorescence intensity (Epithelial cells; 4 Hours after medium replaced): 98.3 ± 5.5
- Mean fluorescence intensity (Epithelial cells; 8 Hours after medium replaced): 55.9 ± 6.7
- Mean fluorescence intensity (Epithelial cells; 12 Hours after medium replaced): 46.9 ± 3.6
- Mean fluorescence intensity (Epithelial cells; 24 Hours after medium replaced): 40.4 ± 5.3

Structure (SMILES): CCCCCCCC(=O)NCCCCC(N)C(=O)O (stereo not drawn) [Lys-n-octanoic acid]
- Mean fluorescence intensity (Epithelial cells; 0 Hours after medium replaced): 103.4 ± 3.1
- Mean fluorescence intensity (Epithelial cells; 2 Hours after medium replaced): 99.3 ± 7.9
- Mean fluorescence intensity (Epithelial cells; 4 Hours after medium replaced): 92.4 ± 7.7
- Mean fluorescence intensity (Epithelial cells; 8 Hours after medium replaced): 45.4 ± 4.7
- Mean fluorescence intensity (Epithelial cells; 12 Hours after medium replaced): 30.4 ± 7.5
- Mean fluorescence intensity (Epithelial cells; 24 Hours after medium replaced): 24.2 ± 8.5

Structure (SMILES): CCCCCCCCCCCCCCCCCC(=O)NCCCCC(N)C(=O)O (stereo not drawn) [Lys-stearic acid]
- Fluorescence recovery rate % (Hela cells; 2 nM, 20 s): 64.38%
- Fluorescence recovery rate % (Hela cells; 2 nM, 40 s): 65.33%
- Fluorescence recovery rate % (Hela cells; 2 nM, 60 s): 66.78%
- Fluorescence recovery rate % (Hela cells; 2 nM, 80 s): 65.32%
- Fluorescence recovery rate % (Hela cells; 5 nM, 20 s): 63.98%
- Fluorescence recovery rate % (Hela cells; 5 nM, 40 s): 64.03%
- Fluorescence recovery rate % (Hela cells; 5 nM, 60 s): 64.52%
- Fluorescence recovery rate % (Hela cells; 5 nM, 80 s): 64.77%
- Fluorescence recovery rate % (Hela cells; 10 nM, 20 s): 64.41%
- Fluorescence recovery rate % (Hela cells; 10 nM, 40 s): 64.81%
- Fluorescence recovery rate % (Hela cells; 10 nM, 60 s): 65.40%
- Fluorescence recovery rate % (Hela cells; 10 nM, 80 s): 65.86%
- Fluorescence recovery rate % (Hela cells; 50 nM, 20 s): 65.08%
- Fluorescence recovery rate % (Hela cells; 50 nM, 40 s): 65.47%
- Fluorescence recovery rate % (Hela cells; 50 nM, 60 s): 65.55%
- Fluorescence recovery rate % (Hela cells; 50 nM, 80 s): 66.26%
- Fluorescence recovery rate % (Hela cells; 50 μM, 20 s): 65.84%
- Fluorescence recovery rate % (Hela cells; 50 μM, 40 s): 71.51%
- Fluorescence recovery rate % (Hela cells; 50 μM, 60 s): 75.97%
- Fluorescence recovery rate % (Hela cells; 50 μM, 80 s): 80.33%
- Fluorescence recovery rate % (Hela cells; 100 μM, 20 s): 64.77%
- Fluorescence recovery rate % (Hela cells; 100 μM, 40 s): 70.54%
- Fluorescence recovery rate % (Hela cells; 100 μM, 60 s): 73.46%
- Fluorescence recovery rate % (Hela cells; 100 μM, 80 s): 78.44%
- Mean fluorescence intensity (Epithelial cells; 0 Hours after medium replaced): 105.3 ± 5.2
- Mean fluorescence intensity (Epithelial cells; 2 Hours after medium replaced): 103.4 ± 2.7
- Mean fluorescence intensity (Epithelial cells; 4 Hours after medium replaced): 98.3 ± 2.5
- Mean fluorescence intensity (Epithelial cells; 8 Hours after medium replaced): 56.5 ± 5.6
- Mean fluorescence intensity (Epithelial cells; 12 Hours after medium replaced): 46.7 ± 8.5
- Mean fluorescence intensity (Epithelial cells; 24 Hours after medium replaced): 39.0 ± 5.3

Structure (SMILES): NC(CCCCNC(=O)CCCCCCCCCCCC(=O)O)C(=O)O (stereo not drawn) [Lys-tridecanedioic acid]
- Mean fluorescence intensity (Epithelial cells; 0 Hours after medium replaced): 134.4 ± 5.7
- Mean fluorescence intensity (Epithelial cells; 2 Hours after medium replaced): 125.0 ± 6.9
- Mean fluorescence intensity (Epithelial cells; 4 Hours after medium replaced): 113.9 ± 4.2
- Mean fluorescence intensity (Epithelial cells; 8 Hours after medium replaced): 64.3 ± 1.6
- Mean fluorescence intensity (Epithelial cells; 12 Hours after medium replaced): 48.4 ± 6.8
- Mean fluorescence intensity (Epithelial cells; 24 Hours after medium replaced): 42.0 ± 2.6

Structure (SMILES): NC(COC(=O)CCCCCCCCCCCCCCCCCCCCC(=O)O)C(=O)O (stereo not drawn) [Ser-docosanedioic acid]
- Mean fluorescence intensity (Epithelial cells; 0 Hours after medium replaced): 114.5 ± 3.3
- Mean fluorescence intensity (Epithelial cells; 2 Hours after medium replaced): 101.4 ± 6.9
- Mean fluorescence intensity (Epithelial cells; 4 Hours after medium replaced): 95.4 ± 5.5
- Mean fluorescence intensity (Epithelial cells; 8 Hours after medium replaced): 74.4 ± 2.4
- Mean fluorescence intensity (Epithelial cells; 12 Hours after medium replaced): 34.5 ± 5.5
- Mean fluorescence intensity (Epithelial cells; 24 Hours after medium replaced): 20.4 ± 4.4

Structure (SMILES): NC(COC(=O)CCCCCCCCCCC(=O)O)C(=O)O (stereo not drawn) [Ser-dodecanedioic acid]
- Mean fluorescence intensity (Epithelial cells; 0 Hours after medium replaced): 127.3 ± 3.5
- Mean fluorescence intensity (Epithelial cells; 2 Hours after medium replaced): 126.3 ± 5.2
- Mean fluorescence intensity (Epithelial cells; 4 Hours after medium replaced): 118.3 ± 7.3
- Mean fluorescence intensity (Epithelial cells; 8 Hours after medium replaced): 69.3 ± 8.4
- Mean fluorescence intensity (Epithelial cells; 12 Hours after medium replaced): 59.3 ± 5.5
- Mean fluorescence intensity (Epithelial cells; 24 Hours after medium replaced): 45.3 ± 1.6

Structure (SMILES): NC(COC(=O)CCCCCCCCCCCCCCC(=O)O)C(=O)O (stereo not drawn) [Ser-hexadecanedioic acid]
- Mean fluorescence intensity (Epithelial cells; 0 Hours after medium replaced): 119.6 ± 9.4
- Mean fluorescence intensity (Epithelial cells; 2 Hours after medium replaced): 116.2 ± 5.1
- Mean fluorescence intensity (Epithelial cells; 4 Hours after medium replaced): 93.4 ± 5.3
- Mean fluorescence intensity (Epithelial cells; 8 Hours after medium replaced): 63.9 ± 4.1
- Mean fluorescence intensity (Epithelial cells; 12 Hours after medium replaced): 46.0 ± 3.6
- Mean fluorescence intensity (Epithelial cells; 24 Hours after medium replaced): 37.6 ± 6.7

Structure (SMILES): CCCCCCCCCC(=O)OCC(N)C(=O)O (stereo not drawn) [Ser-n-decanoic acid]
- Mean fluorescence intensity (Epithelial cells; 0 Hours after medium replaced): 115.4 ± 4.4
- Mean fluorescence intensity (Epithelial cells; 2 Hours after medium replaced): 113.3 ± 6.4
- Mean fluorescence intensity (Epithelial cells; 4 Hours after medium replaced): 108.3 ± 4.4
- Mean fluorescence intensity (Epithelial cells; 8 Hours after medium replaced): 75.5 ± 2.7
- Mean fluorescence intensity (Epithelial cells; 12 Hours after medium replaced): 56.4 ± 2.4
- Mean fluorescence intensity (Epithelial cells; 24 Hours after medium replaced): 39.5 ± 5.7

Structure (SMILES): NC(COC(=O)CCCCCCCCCCCCCCCCC(=O)O)C(=O)O (stereo not drawn) [Ser-octadecanedioic acid]
- Mean fluorescence intensity (Epithelial cells; 0 Hours after medium replaced): 136.2 ± 8.5
- Mean fluorescence intensity (Epithelial cells; 2 Hours after medium replaced): 127.3 ± 1.6
- Mean fluorescence intensity (Epithelial cells; 4 Hours after medium replaced): 102.3 ± 4.4
- Mean fluorescence intensity (Epithelial cells; 8 Hours after medium replaced): 76.2 ± 4.6
- Mean fluorescence intensity (Epithelial cells; 12 Hours after medium replaced): 53.9 ± 7.2
- Mean fluorescence intensity (Epithelial cells; 24 Hours after medium replaced): 42.4 ± 5.5
